# Source: patent US20260263638A1, “COMPOSITIONS AND METHODS TO IMPROVE RNA PROPERTIES USING BASE, PHOSPHODIESTER LINKAGE, SUGAR BACKBONE, AND CAP MODIFICATIONS” (The Broad Institute, Inc., priority 2023, published 2026)
# Strand notation (5' to 3'): a small letter for the sugar, then the base; units joined by * are phosphorothioate-linked, units joined directly phosphodiester-linked; [ ] holds rarer units or linkages, { } end groups; capitals alone tell only the bases. {m7G} = 7-methylguanosine cap nucleotide; l = locked nucleic acid (LNA); m = 2'-O-methyl; r = 2'-OH (RNA); {P} = phosphate
# Key:
# [1] = target: T1, human decapping enzyme 2 (hDcp2) (Homo sapiens, UniProt Q8IU60); experiment: hDcp2 decapping assay; assay type: biochemical; details: 23-nt capped oligos; for Susceptibility / resistance to hDcp2 decapping: result in words
# T1 construct: purchased Enzymax LLC 86
# Procedure: Next, the influence of modifications on decapping activity was examined. To this end, 23-nucleotide (23-nt) oligonucleotides with various modification patterns were subjected to decapping reactions and analyzed at different time intervals (FIGS. 14E and 9I).
# 500 ng of capped oligos were incubated in 75 μL decapping reaction buffer (10 mM Tris-HCl (pH 7.5), 100 mM NaCl, 2 mM MgCl2, 1 mM DTT, 2 mM MnCl2, 1:25 SUPERaseIn (v/v)) with 300 ng of hDcp2 [Enzymax LLC, 86] at 37° C. At indicated time points, 5 μL of reaction mixture was aliquoted out into 10 μL of denaturing gel-loading buffer [NEB, B0363S, with urea added to a final concentration of 5 M] and cooled to −20° C. until all time points were collected. The fractions were analyzed by PAGE using Novex 15% TBE-Urea gel [Invitrogen, EC6885BOX] by running at 100 V for 2 hours and stained by 1×SYBR Gold [ThermoFisher Scientific, S11494], and visualized using BioRad ChemiDoc MP Imaging System [12003154]. Band intensities were quantified using ImageJ.
# [2] = target: T2, eIF4E (Homo sapiens, UniProt P06730); experiment: eIF4E electrophoretic mobility shift assay (EMSA); assay type: binding; details: AF647-labeled capped oligos, read-out: eIF4E dissociation constant (Kd)
# T2 construct: His; purchased Cayman Chemical Inc 25150
# T2 sequence (P06730 whole entry): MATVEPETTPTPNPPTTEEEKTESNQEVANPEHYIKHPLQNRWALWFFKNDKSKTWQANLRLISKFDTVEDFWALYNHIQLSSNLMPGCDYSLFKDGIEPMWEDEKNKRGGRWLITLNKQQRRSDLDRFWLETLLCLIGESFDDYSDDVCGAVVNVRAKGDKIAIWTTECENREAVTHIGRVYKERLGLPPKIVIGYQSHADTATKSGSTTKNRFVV
# Procedure: (§1) eIF4E affinity to fluorophore-labeled capped RNA oligonucleotides was quantified through electrophoretic mobility shift assay (EMSA) (FIGS. 14D and 9A-9E).
# (§2) Capped oligonucleotides were labeled on the 3′ end using AF647 labeled cytidine-5′-phosphate-3′-(6-aminohexyl) phosphate [Jena Bioscience, NU-1706-AF647] and T4 RNA ligase ligated AF647-labeled cytidine onto the capped oligos using manufacturer's protocols. Oligos were then incubated in the binding buffer (1 mM DTT, 50 mM KCl, 10 mM Tris-HCl (pH 7.6), Novex Hi-Density TBE Sample Buffer [Invitrogen, LC6678]) with varying eIF4E-His [Cayman Chemical Inc, 25150] concentrations prepared by sequential dilutions from the stock solution. The oligos and […] were incubated at 4° C. for 30 mins and characterized by EMSA with Novex TBE Gels, 4-20% [Invitrogen, EC6225BOX] at 4° C. AF647 labeled oligos were imaged with BioRad ChemiDoc MP Imaging System [12003154] and band intensities were quantified using ImageJ. For Kd calculation, the proportions of bound were plotted against eIF4E concentration using GraphPad Prism (Specific binding with Hill slope).
# [3] = system: HeLa cells; experiment: Time-course dual luciferase assay of modified Firefly luciferase mRNA (Renilla control); assay type: cell-based; details: HeLa cells; 8-, 24-, 48-hours post-transfection; benchmark m7G-rG
# Procedure: The modularity of this workflow enabled divergent construction and evaluation of mRNAs featuring four different types of cap and 5′ UTR modifications (FIG. 8A): (1) base identities within the 5′ UTR, including as locations beyond the third base (+3 position), (2) phosphodiester linkages within the 5′ UTR, (3) sugar backbone modifications within the 5′ UTR, and (4) cap modifications. The effects of all of these different types of modifications on protein translation were assayed using Firefly luciferase reporter at 8-, 24-, and 48-hours post-transfection.
# HeLa cells [ATCC, CCL-2] were maintained in DMEM culture media [ThermoFisher Scientific, 119951] containing 10% FBS and 1% penicillin-streptomycin [ThermoFisher Scientific, 15070063] in a 37° C. incubator with 5% CO2 and passaged at a ratio of 1:10 every 3 days. On the day before mRNA transfection, HeLa cells were seeded at 90% confluence in individual wells on 24-well plates. The following day, 50 ng of Renilla luciferase (internal control) mRNA and 50 ng of modified Firefly luciferase mRNA were transfected using Lipofectamine MessengerMAX Transfection Reagent [ThermoFisher Scientific, LMRNA003] per manufacturer's protocols. Additional controls that contain only Renilla luciferase mRNA or lipofection reagent only were included. Three individual transfections were conducted for each condition. 6 hours after transfection, the transfection media was removed, and cells were trypsinized and reseeded to three white clear-bottom 96-well plates [Corning, 3610] in phenol-red-free media. At 8-, 24-, and 48-hours post-transfection, cell culture media was removed and cells were rinsed with DPBS. Cells were lysed and luciferase activity was measured using the Promega Dual Glo Luciferase Assay System [Promega, E2920]. Firefly luminescence/Renilla luminescence for each well was used as mRNA activity readout. In cases where Nluc and Fluc were used, the protocol was conducted similarly using the Nano-Glo Dual-Luciferase Reporter Assay System [Promega, N1610].
# [4] = system: HeLa cells; experiment: NLuc bioluminometry of circRNA/QRNA (Fluc transfection control); assay type: cell-based; details: capped oligo:circRNA up to 80:1 molar ratio
# Procedure: Synthetic linear mRNA encoding NanoLuciferase (NLuc) was prepared from DNA template by IVT with 100% m1ψ substitution. The triphosphorylated mRNA after IVT was then treated with Calf Intestinal Alkaline Phosphatase (CIAP) to yield 5′/3′-hydroxyl mRNA. A chemically synthesized oligonucleotide with a branched m7G cap and 5′/3′-phosphates was then ligated to the 5′/3′-hydroxyl mRNA by T4 RNA ligase, which ligates the 5′-phosphate on the oligo and 3′-hydroxyl of the mRNA. The ligation product was then further treated with RtcB ligase, which ligates the 5′-hydroxyl and 3′-phosphate ends to enable intramolecular circularization. […] Using one primer only produced no fragmentation but only linearization, confirming successful circularization. Using double primers produced fragments flanking the branched region, where branched topology was confirmed by gel shift. […] NLuc bioluminometry was measured 8 hrs post transfection and normalized Firefly luciferase as transfection control. Mean±s.e.m., n=3. P values were calculated by ordinary one-way ANOVA (alpha=0.05), with multiple comparisons to circ-NLuc with only 5-octadiynyl deoxyuridine (OU) handle (construct 45). ****P<0.0001, n.s. P>0.05. […] QRNA with m7G (construct 48) was compared. n=3, biological replicates. Mean±sem. P values were calculated by ordinary one-way ANOVA with multiple comparisons against construct 61 without any cotransfected capped oligos (Dunnett's multiple comparison test). […] P values were calculated by unpaired two-sided t-test.
# HeLa cells [ATCC, CCL-2] were maintained in DMEM culture media [ThermoFisher Scientific, 119951] containing 10% FBS and 1% penicillin-streptomycin [ThermoFisher Scientific, 15070063] in a 37° C. incubator with 5% CO2 and passaged at a ratio of 1:10 every 3 days. […] Cells were lysed and luciferase activity was measured using the Promega Dual Glo Luciferase Assay System [Promega, E2920]. Firefly luminescence/Renilla luminescence for each well was used as mRNA activity readout. […]
# [5] = system: reticulocytes; experiment: Plasma reticulocyte counting by flow cytometry; assay type: in vivo; details: mice
# Procedure: (§3) mRNA diluted in 50 mM citrate buffer (pH 4) and lipid mix (37.5 mM in ethanol) containing 50 mol % SM-102, 10 mol % DSPC, 38.5 mol % Cholesterol, and 1.5 mol % DMG-PEG2000 were assembled into LNP using a NanoAssemblr Spark instrument [Precision Nanosystems]. Upon formulation, mRNA-LNPs were diluted in 12 mL 1×PBS solution and the buffer was exchanged by concentrating with a 30 kDa spin filter [MilliporeSigma, UFC901008] to remove residue ethanol. Concentrations and encapsulation efficiency of mRNA were determined using Quant-it RiboGreen RNA Assay Kit [ThermoFisher, R11490]. 1 μg NanoLuc or hEPO mRNA-LNP in a total volume of 100 μL was injected through retro orbital injection into each mouse. Four mice were used for each condition of each experiment (NanoLuc imaging, hEPO ELISA, and reticulocyte counting). For NanoLuc imaging, PBS injection was used as negative control. For hEPO/reticulocyte experiments, poly(C)-LNP complex was used as negative control.
# 10 μL […] sample was added into 1 mL of the Reticulocyte Reagent [BD Bioscience] at the indicated time points and the mixture was incubated at room temperature for 30 minutes with protection from light. The samples were analyzed with Beckman CytoFLEX LX Flow Cytometer with 100,000-event records for each sample. Thiazole orange positive cells are defined as reticulocytes.
# [6] = Quantification of plasma hEPO by ELISA after mRNA-LNP injection; assay type: in vivo; details: mice; hEPO mRNA-LNP retro-orbital; 6 hours
# Procedure: All animal procedures followed animal care guidelines approved by the Institutional Animal Care and Use Committee (IACUC) of the Broad Institute of MIT and Harvard under animal protocol #0255-08-19. Animal experiments were conducted in compliance with IACUC policies and NIH guidelines. The BALB/cj (male, 6~8 weeks old) mice used for in vivo NanoLuc assay in this study were purchased from The Jackson Laboratory (JAX). The C57BL/6 mice (female, 7 weeks old), used for hEPO assay in this study were purchased from The Jackson Laboratory (JAX).
# as §3
# At the indicated time points, approximately 100 μL of blood was collected with EDTA-coated capillary tubes from each mouse and then transferred to an EDTA-coated tube. The collected blood samples were centrifuged at 2000 g for 10 min, followed by transferring the resulting plasma into another tube. The hEPO levels in the plasma samples were measured by Human Erythropoietin (EPO) ELISA kit [LEGEND MAX, 442907]. Final concentrations for hEPO were adjusted based on the volume and dilution fold.
# [7] = target: eIF4E (UniProt P06730 P06730:1-217); experiment: EMSA; 50 mM KCl, 10 mM Tris-HCl pH 7.6, 1 mM DTT, 4 C; details: tags: His tag; Cayman Chemical 25150; label: 3' AF647-cytidine (EMSA)
# Sequence of eIF4E (UniProt P06730 P06730:1-217) (P06730 whole entry, one chain of several): as the sequence (P06730 whole entry) above
# Procedure: as §1, §2
molecule,measurement,setting,value
construct 15: m7G cap; /5Phos/mAmGmAmGmAmArUrArArArArA (SEQ ID NO: 16) ({P}-mAmGmAmGmAmArUrArArArArA; m7G cap on the 5'-phosphate),Susceptibility / resistance to hDcp2 decapping,[1]; listed as 2′OMe at first 6 bases,increased decapping resistance to a similar level as LNA modification
same,Susceptibility / resistance to hDcp2 decapping,[1]; listed as 2′OMe within the first 6 bases,increased decapping resistance
same,Kd,[2],2450 ± 140 nM
same,"Protein expression (Firefly luciferase luminescence normalized to Renilla, then to m7G-rG), fold increase",[3],6.9 fold
construct 22: LNAm7G cap; /5Phos/+ArGrArGrArArUrArArArArA (SEQ ID NO: 23) ({P}-lArGrArGrArArUrArArArArA; LNA-modified m7G cap on the 5'-phosphate),Capped transcripts remaining after hDcp2 decapping,[1]; after 60 minutes,71%~73
same,Kd,[2],1420 ± 126 nM
same,"Protein expression (Firefly luciferase luminescence normalized to Renilla, then to m7G-rG), fold increase",[3],8.6 fold
"construct 61: m1ψ NLuc circRNA with 20-nt insert, annealed non-covalently to m7G-capped complementary oligo (SEQ ID NO: 116, 177) (chain 1 AAAAACUUACCAAGCGAAGAACAGAAAAA; chain 2 GUCUGUUCUUCGCUUGGUAAG; m1ψ; circRNA; m7G-capped complementary oligo annealed; modified_base 1 OTHER; 5'-phosphate modified nucleotide; modified_base 29 OTHER; 3'-phosphate modified nucleotide; 5'-phosphate modified 7-methylguanosine)",Enhancement of NLuc protein production by non-covalent complementary capped oligo,[4],up to 5 fold
"construct S21: hEPO mRNA with m7G-rG cap, in LNP (SEQ ID NO: 138) (GGAGAAUAAAAA; RNA, 5' {m7G}, backbone not given here; capped 5' oligo ligated to hEPO mRNA, formulated in LNP) [reference compound]","Effect on reticulocyte counts, result in words","[5]; day 6, vs poly(C)-LNP",non-significant
same,"Reticulocytes, % of total red blood cells",[5]; day 6 post-administration,4±0.3%
same,Peak plasma hEPO expression,[6],733±123 mlU/mL
"AGAGAAUAAAAA (ssRNA, 5' m7G cap with LNA sugar; LNA at position 1) [LNAm7G-LNA (22)]",Kd,[7],1420 nM
"AGAGAAUAAAAA (ssRNA, 5' m7G cap; 2'-OMe at positions 1-6) [m7G-6x2OMe (15)]",Kd,[7],2450 nM
"AGAGAAUAAAAA (ssRNA, 5' m7G cap with LNA sugar; 2'-OMe at positions 1-6) [LNAm7G-2OMex6 (24)]",Kd,[7],1570 nM
